Columns and labels:
KRas^WT = biological target: T1, KRas^WT (Homo sapiens, UniProt P01116); experiment: KRas binding assay (TR-FRET tracer displacement), KRas WT; settings: for inhibition at 0.01 µM: single point, 10 nM compound, TR-FRET; for IC50: TR-FRET tracer displacement, KRas WT
T1 construct: Biotinylated KRas (corresponding to amino acids 1-169, produced at Accelegan Inc.); biotin (biotinylated); purchased Accelegan Inc

KRas^G12A = biological target: T2, KRas^G12A (Homo sapiens, UniProt P01116, G12A); experiment: KRas binding assay (TR-FRET tracer displacement), KRas G12A; settings: for inhibition at 0.01 µM: single point, 10 nM compound, TR-FRET; for IC50: TR-FRET tracer displacement, KRas G12A
T2 construct: Biotinylated KRas (corresponding to amino acids 1-169, produced at Accelegan Inc.); biotin (biotinylated); purchased Accelegan Inc
T2 sequence (P01116 1-169 isoform P01116-2 G12A): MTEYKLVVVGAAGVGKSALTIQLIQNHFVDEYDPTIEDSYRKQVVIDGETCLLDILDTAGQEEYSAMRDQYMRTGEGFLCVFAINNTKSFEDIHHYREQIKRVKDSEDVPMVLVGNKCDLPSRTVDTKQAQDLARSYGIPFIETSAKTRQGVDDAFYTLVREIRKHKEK

KRas^G12C = biological target: T3, KRas^G12C (Homo sapiens, UniProt P01116, G12C); experiment: KRas binding assay (TR-FRET tracer displacement), KRas G12C; settings: for inhibition at 0.01 µM: single point, 10 nM compound, TR-FRET; for IC50: TR-FRET tracer displacement, KRas G12C
T3 construct: Biotinylated KRas (corresponding to amino acids 1-169, produced at Accelegan Inc.); biotin (biotinylated); purchased Accelegan Inc
T3 sequence (P01116 1-169 isoform P01116-2 G12C): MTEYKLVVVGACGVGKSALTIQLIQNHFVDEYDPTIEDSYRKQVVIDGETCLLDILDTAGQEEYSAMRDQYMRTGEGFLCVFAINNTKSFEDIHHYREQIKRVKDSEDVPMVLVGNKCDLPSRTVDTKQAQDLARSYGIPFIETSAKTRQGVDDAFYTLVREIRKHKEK

KRas^G12D = biological target: T4, KRas^G12D (Homo sapiens, UniProt P01116, G12D); experiment: KRas binding assay (TR-FRET tracer displacement), KRas G12D
T4 construct: Biotinylated KRas (corresponding to amino acids 1-169, produced at Accelegan Inc.); biotin (biotinylated); purchased Accelegan Inc
T4 sequence (P01116 1-169 isoform P01116-2 G12D): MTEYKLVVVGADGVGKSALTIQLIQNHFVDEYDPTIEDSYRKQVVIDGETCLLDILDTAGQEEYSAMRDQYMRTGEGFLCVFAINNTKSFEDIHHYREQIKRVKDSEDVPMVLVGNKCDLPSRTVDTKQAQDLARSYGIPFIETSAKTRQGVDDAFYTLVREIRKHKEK

KRas^G12R = biological target: T5, KRas^G12R (Homo sapiens, UniProt P01116, G12R); experiment: KRas binding assay (TR-FRET tracer displacement), KRas G12R
T5 construct: Biotinylated KRas (corresponding to amino acids 1-169, produced at Accelegan Inc.); biotin (biotinylated); purchased Accelegan Inc
T5 sequence (P01116 1-169 isoform P01116-2 G12R): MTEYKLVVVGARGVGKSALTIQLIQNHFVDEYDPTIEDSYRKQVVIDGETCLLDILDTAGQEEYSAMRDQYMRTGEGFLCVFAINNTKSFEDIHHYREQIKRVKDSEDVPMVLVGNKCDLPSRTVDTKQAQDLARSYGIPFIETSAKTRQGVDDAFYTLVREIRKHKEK

KRas^G12S = biological target: T6, KRas^G12S (Homo sapiens, UniProt P01116, G12S); experiment: KRas binding assay (TR-FRET tracer displacement), KRas G12S; settings: for inhibition at 0.01 µM: single point, 10 nM compound, TR-FRET; for IC50: TR-FRET tracer displacement, KRas G12S
T6 construct: Biotinylated KRas (corresponding to amino acids 1-169, produced at Accelegan Inc.); biotin (biotinylated); purchased Accelegan Inc
T6 sequence (P01116 1-169 isoform P01116-2 G12S): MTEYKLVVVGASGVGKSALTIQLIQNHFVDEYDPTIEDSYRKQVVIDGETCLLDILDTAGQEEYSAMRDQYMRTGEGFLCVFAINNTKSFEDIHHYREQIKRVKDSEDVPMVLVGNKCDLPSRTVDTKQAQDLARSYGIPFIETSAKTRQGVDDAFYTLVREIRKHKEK

KRas^G12V = biological target: T7, KRas^G12V (Homo sapiens, UniProt P01116, G12V); experiment: KRas binding assay (TR-FRET tracer displacement), KRas G12V
T7 construct: Biotinylated KRas (corresponding to amino acids 1-169, produced at Accelegan Inc.); biotin (biotinylated); purchased Accelegan Inc
T7 sequence (P01116 1-169 isoform P01116-2 G12V): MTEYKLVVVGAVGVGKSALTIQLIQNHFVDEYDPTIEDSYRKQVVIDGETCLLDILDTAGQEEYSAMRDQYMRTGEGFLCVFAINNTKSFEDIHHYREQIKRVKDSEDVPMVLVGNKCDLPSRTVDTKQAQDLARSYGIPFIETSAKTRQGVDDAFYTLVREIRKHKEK

KRas^G13D = biological target: T8, KRas^G13D (Homo sapiens, UniProt P01116, G13D); experiment: KRas binding assay (TR-FRET tracer displacement), KRas G13D; settings: for inhibition at 0.01 µM: single point, 10 nM compound, TR-FRET; for IC50: TR-FRET tracer displacement, KRas G13D
T8 construct: Biotinylated KRas (corresponding to amino acids 1-169, produced at Accelegan Inc.); biotin (biotinylated); purchased Accelegan Inc
T8 sequence (P01116 1-169 isoform P01116-2 G13D): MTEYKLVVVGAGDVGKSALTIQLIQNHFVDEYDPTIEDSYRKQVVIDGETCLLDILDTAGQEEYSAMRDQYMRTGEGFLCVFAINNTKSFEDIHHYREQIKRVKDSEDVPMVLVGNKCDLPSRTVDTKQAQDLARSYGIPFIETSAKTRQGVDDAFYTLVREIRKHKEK

KRas^Q61H = biological target: T9, KRas^Q61H (Homo sapiens, UniProt P01116, Q61H); experiment: KRas binding assay (TR-FRET tracer displacement), KRas Q61H; settings: for inhibition at 0.01 µM: single point, 10 nM compound, TR-FRET; for IC50: TR-FRET tracer displacement, KRas Q61H
T9 construct: Biotinylated KRas (corresponding to amino acids 1-169, produced at Accelegan Inc.); biotin (biotinylated); purchased Accelegan Inc
T9 sequence (P01116 1-169 isoform P01116-2 Q61H): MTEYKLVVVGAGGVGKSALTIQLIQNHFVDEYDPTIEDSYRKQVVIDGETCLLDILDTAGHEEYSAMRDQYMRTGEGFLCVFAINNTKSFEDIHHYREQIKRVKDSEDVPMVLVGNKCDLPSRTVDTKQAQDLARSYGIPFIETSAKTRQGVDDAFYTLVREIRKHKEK

[1] = system: KRas-mediated phosphorylation of ERK in MKN1 cells; experiment: Inhibition of KRas-mediated phosphorylation of ERK (Cisbio HTRF pERK), MKN1 cells; format: cell-based; settings: Homo sapiens, MKN-1
How it was run: (§1)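 Overnight culture at 37° C./5% CO2 in RPMI containing 10% FBS, seeded 6,000 cells per well, preceded the assay. A covered 4-hour incubation at room temperature followed, then HTRF signal for phosphorylated ERK was measured.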

[2] = system: KRas-mediated phosphorylation of ERK in PSN1 cells; experiment: Inhibition of KRas-mediated phosphorylation of ERK (Cisbio HTRF pERK), PSN1 cells; format: cell-based; settings: Homo sapiens
How it was run: as §1

[3] = system: KRas-mediated phosphorylation of ERK in AsPC-1 cells; experiment: Inhibition of KRas-mediated phosphorylation of ERK (Cisbio HTRF pERK), AsPC-1 cells; format: cell-based; settings: Homo sapiens, ASPC1, AsPC-1 cells; HTRF pERK
How it was run: (§2)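 Compound treatment lasts 3 hrs on 6,000 seeded cells, testing 10 doses from a 10 uM top concentration in 3-fold decrements at 0.8% final DMSO. Trametinib at 0.2 uM defines the Min signal. Detection is HTRF on cold-lysed cell extracts.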

[4] = system: KRas-mediated phosphorylation of ERK in H727 cells; experiment: Inhibition of KRas-mediated phosphorylation of ERK (Cisbio HTRF pERK), H727 cells; format: cell-based; settings: Homo sapiens, NCI-H727, H727 cells; HTRF pERK
How it was run: as §2

[5] = system: KRas-mediated phosphorylation of ERK in A549 cells; experiment: Inhibition of KRas-mediated phosphorylation of ERK (Cisbio HTRF pERK), A549 cells; format: cell-based; settings: Homo sapiens; for inhibition at 0.1 µM: A549, 3 h, single point, 100 nM compound, 3 hrs; for IC50: HTRF pERK
How it was run: (§3)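 Phosphorylated ERK was quantified by HTRF using d2-conjugate and Cryptate antibodies added to lysates for 2 hrs at room temperature.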

[6] = system: KRas-mediated phosphorylation of ERK in H460 cells; experiment: Inhibition of KRas-mediated phosphorylation of ERK (Cisbio HTRF pERK), H460 cells; format: cell-based; settings: Homo sapiens; for inhibition at 0.1 µM: NCI-H460, 3 h, single point, 100 nM compound, 3 hrs; for IC50: NCI-H460, HTRF pERK
How it was run: as §2

[7] = system: KRas-mediated phosphorylation of ERK in HCT116 cells; experiment: Inhibition of KRas-mediated phosphorylation of ERK (Cisbio HTRF pERK), HCT116 cells; format: cell-based; settings: Homo sapiens; for inhibition at 0.1 µM: HCT-116, 3 h, single point, 100 nM compound, 3 hrs; for IC50: HCT-116, HTRF pERK
How it was run: as §3

[8] = system: KRas-mediated phosphorylation of ERK in H358 cells; experiment: Inhibition of KRas-mediated phosphorylation of ERK (Cisbio HTRF pERK), H358 cells; format: cell-based; settings: Homo sapiens; for inhibition at 0.1 µM: NCI-H358, 3 h, single point, 100 nM compound, 3 hrs; for IC50: NCI-H358, HTRF pERK
How it was run: as §2

T1 sequence (P01116 1-169 isoform P01116-2): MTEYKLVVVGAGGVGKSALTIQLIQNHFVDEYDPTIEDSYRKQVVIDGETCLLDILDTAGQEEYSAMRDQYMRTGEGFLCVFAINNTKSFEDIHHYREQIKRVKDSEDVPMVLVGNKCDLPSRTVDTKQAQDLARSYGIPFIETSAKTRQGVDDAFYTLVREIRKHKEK

| inhibition at 0.01 µM (KRas^WT) [%] | inhibition at 0.01 µM (KRas^G12A) [%] | inhibition at 0.01 µM (KRas^G12C) [%] | IC50 (KRas^G12D) [nM] | IC50 (KRas^G12R) [nM] | inhibition at 0.01 µM (KRas^G12S) [%] | IC50 (KRas^G12V) [nM] | inhibition at 0.01 µM (KRas^G13D) [%] | IC50 [1] [nM] | IC50 [2] [nM] | IC50 [3] [nM] | IC50 [4] [nM] | IC50 (KRas^WT) [nM] | IC50 (KRas^G12A) [nM] | IC50 (KRas^G12C) [nM] | IC50 (KRas^G12S) [nM] | IC50 (KRas^G13D) [nM] | IC50 (KRas^Q61H) [nM] | SMILES | inhibition at 0.1 µM [6] [%] | inhibition at 0.1 µM [7] [%] | other results |
| --- | --- | --- | --- | --- | --- | --- | --- | --- | --- | --- | --- | --- | --- | --- | --- | --- | --- | --- | --- | --- | --- |
| 93 | 83 | 97 | < 2 | < 2 | 95 | < 2 | 98 | 9 | 1020 | 39 | 273 |  |  |  |  |  |  | CCc1c(F)ccc2cc(O)cc(-c3ncc4c(N5CCCC6(CNS(=O)(=O)N6)C5)nc(OC[C@]56CCCN5[C@H](COC(=O)N(C)C)CC6)nc4c3F)c12 (stereo partly drawn) [Example 716, ((3S,7aR)-7a-(((4-(2,2-dioxido-2-thia-1,3,7-triazaspiro[4.5]decan-7-yl)-7-(8-ethyl-7-fluoro-3-hydroxynaphthalen-1-yl)-8-fluoropyrido[4,3-d]pyrimidin-2-yl)oxy)methyl)hexahydro-1H-pyrrolizin-3-yl)methyl dimethylcarbamate] | 56 | 34 | inhibition at 0.01 µM (KRas^Q61H): 98%; inhibition at 0.1 µM [5]: 37%; inhibition at 0.1 µM [8]: 71% |
| 44 | 47 | 53 | 13 | 7 | 60 | 5 | 53 | 9 | 7190 | 420 | 79 | 13 | 10 | 10 | 8 | 12 | 14 | Oc1cc(-c2ncc3c(N4C[C@@H]5C[C@H](C4)[C@H](O)C5)nc(OC[C@@]45CCCN4C[C@H](F)C5)nc3c2F)c2ccccc2c1 [Example 737, (1R,5R,6R)-3-(8-fluoro-2-(((2R,7aS)-2-fluorohexahydro-1H-pyrrolizin-7a-yl)methoxy)-7-(3-hydroxynaphthalen-1-yl)pyrido[4,3-d]pyrimidin-4-yl)-3-azabicyclo[3.2.1]octan-6-ol] | 27 | 39 | inhibition at 0.01 µM (KRas^Q61H): 46%; inhibition at 0.1 µM [5]: 17%; inhibition at 0.1 µM [8]: 8% |
|  |  |  | < 2 | < 2 |  | < 2 |  | 511 | 4280 | 867 | 701 | 4 | < 2 | 3 | 5 | 3 | < 2 | O=S1(=O)NCC2(CCCN(c3nc(OCC45CCCN4CCC5)nc4c(F)c(-c5cc(O)cc(Cl)c5C5CC5)ncc34)C2)N1 (stereo not shown) [Example 745, 7-(7-(3-chloro-2-cyclopropyl-5-hydroxyphenyl)-8-fluoro-2-((hexahydro-1H-pyrrolizin-7a-yl)methoxy)pyrido[4,3-d]pyrimidin-4-yl)-2-thia-1,3,7-triazaspiro[4.5]decane 2,2-dioxide] |  |  | IC50 [5]: 815 nM; IC50 [6]: 516 nM; IC50 [7]: 1710 nM; IC50 [8]: 185 nM |
|  |  |  | 2 | < 2 |  | < 2 |  | 139 | 2550 | 704 | 220 | < 2 | < 2 | < 2 | < 2 | < 2 | < 2 | O=S1(=O)NCC2(CCCN(c3nc(OC[C@@]45CCCN4C[C@H](F)C5)nc4c(F)c(-c5c6ccccc6cc6[nH]ncc56)ncc34)C2)N1 (stereo partly drawn) [Example 762, 7-(7-(1H-benzo[f]indazol-4-yl)-8-fluoro-2-(((2R,7aS)-2-fluorohexahydro-1H-pyrrolizin-7a-yl)methoxy)pyrido[4,3-d]pyrimidin-4-yl)-2-thia-1,3,7-triazaspiro[4.5]decane 2,2-dioxide] | 22 | 36 | IC50 [5]: 234 nM; IC50 [6]: 327 nM; IC50 [7]: 134 nM; IC50 [8]: 40 nM |

— patent US20260015350A1, “AZAQUINAZOLINE PAN-KRAS INHIBITORS” (Mirati Therapeutics, Inc., priority 2022, published 2026)
